This passage reports EC50, IC50 and MIC results from ChEMBL document CHEMBL5244273, “Tuberculosis: An Overview of the Immunogenic Response, Disease Progression, and Medicinal Chemistry Efforts in the Last Decade toward the Development of Potential Drugs for Extensively Drug-Resistant Tuberculosis Strains” (J Med Chem, 2021).

Each structure is given as a SMILES string. Values after ≈ are worked out from the molar mass of the structure shown. Where only a bound is given, the exact number is not on record here.

In assay [1] the test system is Mycobacterium tuberculosis. The assay is described as follows: Potentiation of ethionamide induced antibacterial activity against Mycobacterium tuberculosis H37Rv expressing GFP incubated for 5 days by fluorescence based analysis. Format: functional, organism-based. The conditions noted are these: 120 h.
The subject of assay [2] is Mycobacterium tuberculosis. The assay is described as follows: Antimycobacterial activity against Mycobacterium tuberculosis H37Rv infected in human THP-1 cells assessed as inhibition of bacterial growth. The class given is functional, organism-based.
For assay [3], the system named is Mycobacterium tuberculosis. The assay is described as follows: Antimycobacterial activity against Mycobacterium tuberculosis H37Rv assessed as inhibition of bacterial growth incubated for 5 days by alamar blue assay. Format: functional. To be noted: 120 h, time 5 day. (Resazurin is reduced to fluorescent resorufin, in cell work by metabolically active cells.)
The subject of assay [4] is Mycobacterium tuberculosis. The assay is described as follows: Antimycobacterial activity against Mycobacterium tuberculosis H37Rv assessed as inhibition of bacterial growth by resazurin dye based fluorescence analysis. The class given is functional.

As usually defined, the EC50 is the concentration that produces a half-maximal response. Broadly, the IC50 is the concentration that inhibits the measured activity by half. As to `O=C(CCC(F)(F)F)N1CCC2(CC1)CC(F)=NO2`, the 50% effective concentration (EC50) in assay [1] was less than 38 nM. In addition, the half-inhibitory concentration (IC50) in assay [2] was 50 nM.

As for `O=C(CCC(F)(F)F)N1CCC(c2cccc(C(F)(F)F)n2)CC1`, the concentration for a half-maximal effect (EC50) in assay [1] is less than 150 nM. For the same molecule, the half-maximal inhibitory concentration (IC50) in assay [2] is 10 nM.

On to `O=C(CCC(F)(F)F)N1CCC(c2cncc(C(F)(F)F)n2)CC1`, for which the EC50 in assay [1] was less than 150 nM. Besides, in assay [2], the IC50 came to 10 nM.

Turning to `O=C(CCC(F)(F)F)N1CCC(c2cncc(F)c2)CC1`, the concentration giving a half-maximal response (EC50) in assay [1] was less than 150 nM. Also, the IC50 in assay [2] was 10 nM.

As for `O=C(CCC(F)(F)F)N1CCC(c2cncc(C(F)(F)F)c2)CC1`, the EC50 in assay [1] was less than 150 nM. In addition, the IC50 in assay [2] turned out to be 10 nM.

Regarding `O=C(CCC(F)(F)F)N1CCC(F)(c2ccc(F)nc2)CC1`, in assay [1], the concentration for a half-maximal effect (EC50) is less than 150 nM. Besides, the IC50 in assay [2] turned out to be 10 nM.

Regarding `O=C(CCC(F)(F)F)N1CCC(c2ccncc2F)CC1`, the EC50 in assay [1] is less than 150 nM. For the same molecule, in assay [2], the IC50 was found to be 10 nM.

Turning to `O=C(CCC(F)(F)F)N1CCC(c2ccc(F)nc2F)CC1`, the EC50 in assay [1] is less than 150 nM. In assay [2], the IC50 came to 10 nM.

Broadly, the MIC is the lowest concentration found to suppress growth. With `COc1ccc(NC(=O)c2c(Nc3ccccc3)nn3c(O)cc(C)nc23)cc1`, the minimum inhibitory concentration (MIC) in assay [3] turned out to be 50 µg/mL (≈ 128 µM).

Turning to `O=C(CCC(F)(F)F)N1CCC(c2ccc(F)cn2)CC1`, the EC50 in assay [1] is less than 150 nM. The half-inhibitory concentration (IC50) in assay [2] worked out at 10 nM.

For the molecule `Cc1ccc(Nc2nn3c(O)cc(C)nc3c2C(=O)Nc2ccc(F)c(Cl)c2)cc1`, the MIC in assay [3] stood at 12.5 µg/mL (≈ 29.4 µM).

Consider `COc1ccc(C2CCN(C(=O)CCC(F)(F)F)CC2)cn1`, for which the concentration giving a half-maximal response (EC50) in assay [1] was less than 150 nM. For the same molecule, the IC50 in assay [2] is 10 nM.

Regarding `CC(c1ccc(F)cc1)n1nnc(-c2ccc(S(=O)(=O)NCC(N)=O)cc2)n1` (stereo unspecified), in assay [4], the MIC turned out to be 0.1 µM (≈ 0.0404 µg/mL).

Regarding `Cc1ccc(Nc2nn3c(O)cc(C)nc3c2C(=O)Nc2ccc(Cl)cc2)c(C)c1`, in assay [3], the MIC amounted to 50 µg/mL (≈ 119 µM).

On to `O=C(CCC(F)(F)F)N1CCC(c2cc(C(F)(F)F)ccn2)CC1`, for which the EC50 in assay [1] was less than 150 nM. Besides, in assay [2], the concentration for half-maximal inhibition (IC50) turned out to be 10 nM.

For `O=C(CCC(F)(F)F)N1CCC(c2ccnc(C(F)(F)F)c2)CC1`, in assay [1], the EC50 is less than 150 nM. For the same molecule, in assay [2], the IC50 came to 10 nM.

Consider `O=C(CCC(F)(F)F)N1CCC(c2cccc(Cl)n2)CC1`, for which the concentration for a half-maximal effect (EC50) in assay [1] is less than 150 nM. Besides, in assay [2], the IC50 stood at 10 nM.

For the molecule `O=C(CCC(F)(F)F)N1CC(c2ccc(F)cc2F)C1`, the concentration for a half-maximal effect (EC50) in assay [1] is less than 10 nM. The IC50 in assay [2] was 10 nM.

As for `O=S(=O)(NCCO)c1ccc(-c2nnn(CC3CCCOC3)n2)cc1` (stereo unspecified), the MIC in assay [4] is 0.1 µM (≈ 0.0367 µg/mL).

With `Cc1cc(O)n2nc(Nc3ccc(Cl)cc3)c(C(=O)Nc3ccccc3)c2n1`, in assay [3], the MIC worked out at 50 µg/mL (≈ 127 µM).

With `COc1ccc(Nc2nn3c(O)cc(C)nc3c2C(=O)Nc2ccc(C)cc2C)cc1`, in assay [3], the MIC was 50 µg/mL (≈ 120 µM).

Turning to `COc1ccc(Cn2nnc(-c3ccc(S(=O)(=O)NCCO)c(OC)c3)n2)nc1`, the minimum inhibitory concentration (MIC) in assay [4] worked out at 0.1 µM (≈ 0.042 µg/mL).

Consider `CC1=NOC2(CCN(C(=O)CCC(F)(F)F)CC2)C1`, for which the concentration for a half-maximal effect (EC50) in assay [1] was less than 38 nM. Besides, the half-inhibitory concentration (IC50) in assay [2] was determined as 50 nM.

In the case of `COc1ccc(NC(=O)c2c(NN3CCOCC3)nn3c(O)cc(C)nc23)cc1`, the minimum inhibitory concentration (MIC) in assay [3] is 25 µg/mL (≈ 62.7 µM).

As to `CNS(=O)(=O)c1ccc(-c2nnn(Cc3ccc(C#N)cc3)n2)cc1`, the minimum inhibitory concentration (MIC) in assay [4] was determined as 0.1 µM (≈ 0.0354 µg/mL).

Turning to `COc1ccc(NC(=O)c2c(Nc3ccc(OC)cc3)nn3c(O)cc(C)nc23)cc1`, the MIC in assay [3] is 12.5 µg/mL (≈ 29.8 µM).

With `COc1cc(-c2nnn(C(C)c3ccc(F)cc3)n2)ccc1S(=O)(=O)NCC(N)=O` (stereo unspecified), in assay [4], the MIC was found to be 0.1 µM (≈ 0.0434 µg/mL).

As to `O=C(CCC(F)(F)F)N1CCC(c2ccnc(F)c2)CC1`, the concentration giving a half-maximal response (EC50) in assay [1] was less than 150 nM. Further, the IC50 in assay [2] amounted to 10 nM.

`O=C(CCC(F)(F)F)N1CC(c2cc(F)c(F)c(F)c2)C1`: the EC50 in assay [1] is less than 10 nM. Moreover, in assay [2], the IC50 stood at 10 nM.

`COc1ccc(NC(=O)c2c(Nc3cccc(Cl)c3)nn3c(O)cc(C)nc23)cc1`: the MIC in assay [3] worked out at 12.5 µg/mL (≈ 29.5 µM).

In the case of `CCOc1ccc(NC(=O)c2c(Nc3ccc(C)cc3C)nn3c(O)cc(C)nc23)cc1`, in assay [3], the minimum inhibitory concentration (MIC) stood at 50 µg/mL (≈ 116 µM).

In the case of `O=C(CCC(F)(F)F)N1CCC(c2cncc(Cl)n2)CC1`, the 50% effective concentration (EC50) in assay [1] is less than 150 nM. The IC50 in assay [2] is 10 nM.

Turning to `Cc1cc(O)n2nc(Nc3ccccc3)c(C(=O)Nc3ccccc3)c2n1`, the minimum inhibitory concentration (MIC) in assay [3] is 50 µg/mL (≈ 139 µM).

With `Cc1cc(O)n2nc(Nc3ccc(Cl)cc3)c(C(N)=O)c2n1`, the MIC in assay [3] came out at 50 µg/mL (≈ 157 µM).

With `O=C(CCC(F)(F)F)N1CCC(F)(c2ccccn2)CC1`, the half-maximal effective concentration (EC50) in assay [1] is less than 150 nM. In addition, the IC50 in assay [2] was 10 nM.

Consider `Cc1cc(C2CCN(C(=O)CCC(F)(F)F)CC2)ccn1`, for which, in assay [1], the EC50 is less than 150 nM. For the same molecule, the half-maximal inhibitory concentration (IC50) in assay [2] came out at 10 nM.

In the case of `O=C(CCC(F)(F)F)N1CCC(c2ccc(F)nc2)CC1`, the EC50 in assay [1] was less than 150 nM. For the same molecule, the IC50 in assay [2] turned out to be 10 nM.

For the molecule `O=C(CCC(F)(F)F)N1CCC(c2cccc(F)n2)CC1`, the concentration for a half-maximal effect (EC50) in assay [1] was less than 150 nM. Further, the half-maximal inhibitory concentration (IC50) in assay [2] turned out to be 10 nM.

On to `CC(C)COC1=NOC2(CCN(C(=O)CCC(F)(F)F)CC2)C1`, for which the half-maximal effective concentration (EC50) in assay [1] was less than 38 nM. For the same molecule, the IC50 in assay [2] worked out at 50 nM.

Take `N#CC1=NOC2(CCN(C(=O)CCC(F)(F)F)CC2)C1`: the half-maximal effective concentration (EC50) in assay [1] was less than 38 nM. The IC50 in assay [2] was 50 nM.

For the molecule `O=C(CCC(F)(F)F)N1CCC(c2cncc(Cl)c2)CC1`, in assay [1], the 50% effective concentration (EC50) was less than 150 nM. Further, the concentration for half-maximal inhibition (IC50) in assay [2] amounted to 10 nM.
